Legend:
[1] = tested on: HepG2-A16-CD81 hepatocytes; assay: cells; parameters: Uninfected hepatocyte viability, CellTiter-Glo luminescence; conditions: sheet CDD Export 1;, cytotoxicity primary screen, read-out: Table S5. Liver stage reconfirmation data / HepG2 Cytotoxicity primary screen (2uM): % Inhibition
Experimental: For the screen, 5 μL of HepG2-A16-CD81 hepatocytes containing 3 × 10^3 cells was seeded into 1536-well plates, which had been prespotted with 10 nL of library compound (2 μM final assay concentration (Figure 1)) and incubated overnight. For PbLuc infected plates, approximately 750 purified sporozoites in 5 μL of screening media were added to each well and incubated for 48 h before measuring luciferase activity. Compounds were tested for toxicity in parallel (see Methods) by measuring uninfected hepatocyte viability using CellTiter-Glo. […] This hit rate was slightly lower than expected for an agnostic library, which prompted us to rescreen the entire library at 10 μM. The PbLuc and cytotoxicity assay plates for this second replicate would be stamped in-house with 50 nL of library compound per well, using the same compound plates as the sexual stage screen described below. All the assay parameters were kept similar, except the change in concentration and shortening the time the compounds spent in each well prior to infection. […] All potential false positive effectors from the CellTiter-Glo assay were filtered from subsequent studies (Table S1). Naturally, there were more primary hits from the 10 μM than the 2 μM screen due to the higher testing concentration. For reconfirmation, we sourced all the hits that inhibited PbLuc at >70% and mean HepG2 at <50% in the 2 μM screen or PbLuc at >60% in both 2 and 10 μM screens and mean HepG2 at <50%. The resulting compounds were acquired as DMSO stocks and retested in the dose response (50–2.82 × 10^–4 μM or 25–141.13 × 10^–6 μM) against PbLuc and uninfected hepatocytes (Table S5). […] The majority of these compounds were weak inhibitors, although 18 submicromolar hits were found (Table S5).

[2] = tested on: P. falciparum (NF54) stage V gametocytes; assay: Stage V gametocyte viability assay (MitoTracker Red CMXRos high content imaging); format: cell-based, Plasmodium falciparum; conditions: Plasmodium falciparum, NF54, 72 h
[3] = tested on: P. falciparum Dd2 (PfLuc) line expressing firefly luciferase, asexual blood stage; assay: microbe, parasite or virus in culture; format: cell-based, Plasmodium falciparum; conditions: Plasmodium falciparum, DD2, 8-pt dose response, 96hr

Row | Structure (SMILES) | inhibition at 2 µM [1] [%] | further results
1 | Cc1ccc(Sc2ccc(CN3CCC4(CCCNC4=O)C3)o2)cc1 (stereo not shown) [DDD01244322] | -4.2 | 
2 | CC1(c2ccccc2)CCCN(Cc2cncn2C2CCCC2)C1 (stereo not shown) [DDD01246491, CC1(CCCN(CC2=CN=CN2C2CCCC2)C1)C1=CC=CC=C1] | -6.73 | IC50 ([2]; read-out: Stg V Gam dose response IC50 (µM) (n=3), 10-point dose response, n=3, 72 h): 2.65 µM; inhibition at 2 µM ([2]; read-out: Stg V Gam primary screen: Inhibition % (2uM) (n=2)): 55.4%
3 | Clc1ccccc1-c1cc(CNc2ncnc3c2CCNCC3)no1 [DDD01247009] | -1.07 | 
4 | Fc1ccc(N2CCCN(c3ccc(Cn4ccnc4)cn3)CC2)cc1 [DDD01247581] | 3.83 | 
5 | COc1ccc(-c2cc(CNc3ncnc4c3CCNCC4)no2)cc1 [DDD01252258] | 4.02 | 
6 | CC(Nc1ncnc2c1CCNC2)c1ccc2c(c1)CCCC2 (stereo not shown) [DDD01252547] | 0.573 | 
7 | Cc1csc2ncnc(N3CCC(Cn4cc(C(C)(C)N)nn4)CC3)c12 [DDD01257281] | 4.6 | 
8 | Nc1nc(CCC(=O)N2CCOC(CC3CCCCC3)C2)cs1 (stereo not shown) [DDD01258215] | -10.6 | 
9 | CC(=O)c1ccc(N2CCC(CO)(CCOc3ccccc3)CC2)nc1 [DDD01258288] | 17.5 | 
10 | Cc1nc(N2CC[C@@H](NC(=O)c3cnccn3)[C@H](O)C2)c2ccsc2n1 [DDD01258299] | -14.6 | 
11 | COc1cc(CNCc2ccnc(N3CCCCC3)c2)cc(OC)c1 [DDD01297270] | -2.79 | 
12 | CCc1cccc(N2CCC(NC(=O)c3ccco3)CC2)c1 [DDD01299802] | 4.14 | 
13 | COc1cccc(CN2CCN(c3ccc4nncn4n3)C(C)C2)c1 (stereo not shown) [DDD01301691] | -7.2 | 
14 | COc1c(C)cnc(CN2CCC(N(C)C(C)C(N)=O)CC2)c1C (stereo not shown) [DDD01301801] | 1.63 | IC50 ([3]; read-out: P. falciparum Luciferase ABS 8-pt Reconfirmation Dose Response (96hr): IC50): 1630 nM; Emax ([3]; read-out: P. falciparum Luciferase ABS 8-pt Reconfirmation Dose Response (96hr): Maximum inhibition (%)): 76.5%
15 | Cc1noc(NC(=O)c2ccc(Br)s2)n1 [DDD01302055] | 5.11 | 
16 | Cn1cc(NS(=O)(=O)c2ccc(OC(F)(F)F)cc2)ccc1=O [DDD01303273] | -4.65 | 
17 | CC(C)N(CC(N)=O)Cc1csc(COc2ccc(F)cc2)n1 [DDD01303358] | 6.02 | 
18 | Cc1ccoc1C(=O)NC1CCN(Cc2csc3c(F)cccc23)CC1 [DDD01304087] | -2.96 | 

Source: paper PMC7155171, “Probing the Open Global Health Chemical Diversity Library for Multistage-Active Starting Points for Next-Generation Antimalarials” (ACS Infectious Diseases, 2020)
